Experimental data: patent US12583858B2 (Genentech, Inc., priority 2015, dated 2026)

Biological target: T1, TDO2 (Homo sapiens, UniProt P48775)
T1 construct: decreased levels of NFK in SW48 cells (high TDO expressing cells)
Assay: TDO2 cell assay (NFK GreenScreen, SW48 cells)
Assay type: cell-based
Conditions: SW48 cells (high TDO expressing), 200 uM tryptophan, 24 hours; Table 3; read-out: TDO2 Cell Fluor EC50

T1 sequence (P48775 whole entry): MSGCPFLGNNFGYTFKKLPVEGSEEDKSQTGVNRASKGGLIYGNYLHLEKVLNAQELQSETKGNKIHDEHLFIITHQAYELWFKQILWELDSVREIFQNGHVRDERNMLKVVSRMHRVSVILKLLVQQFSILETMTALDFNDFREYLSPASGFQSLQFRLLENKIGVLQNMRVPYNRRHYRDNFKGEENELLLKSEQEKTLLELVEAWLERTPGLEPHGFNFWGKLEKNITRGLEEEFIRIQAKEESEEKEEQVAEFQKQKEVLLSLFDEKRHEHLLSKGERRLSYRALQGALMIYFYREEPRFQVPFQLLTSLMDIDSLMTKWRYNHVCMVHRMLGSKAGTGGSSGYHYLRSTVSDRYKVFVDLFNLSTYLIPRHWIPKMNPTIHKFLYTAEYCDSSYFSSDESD

SMILES	EC50
O[C@@H]1[C@@H]([C@H]2c3ccccc3-c3cncn32)CC12CCOCC2 [Example 57a, (1R,2R)-2-((S)-5H-imidazo[5,1-a]isoindol-5-yl)-7-oxaspiro[3.5]nonan-1-ol]	11 µM
Cc1cc2c(cn1)[C@@H](O)[C@@H]([C@H]1c3ccccc3-c3cncn31)C2 [Example 59a, (6R,7S)-6-((S)-5H-imidazo[5,1-a]isoindol-5-yl)-3-methyl-6,7-dihydro-5H-cyclopenta[c]pyridin-7-ol]	0.95 µM
Cc1cc2c(cn1)[C@H](O)[C@H]([C@@H]1c3ccccc3-c3cncn31)C2 [Example 59b, (6S,7R)-6-((R)-5H-imidazo[5,1-a]isoindol-5-yl)-3-methyl-6,7-dihydro-5H-cyclopenta[c]pyridin-7-ol]	0.82 µM
NC(=O)c1ccc2c(c1)CC[C@@H]([C@H]1c3ccccc3-c3cncn31)[C@H]2O [Example 60f, (5R,6S)-5-hydroxy-6-((S)-5H-imidazo[5,1-a]isoindol-5-yl)-5,6,7,8-tetrahydronaphthalene-2-carboxamide]	0.057 µM
O[C@@H]1c2ncccc2CC[C@H]1[C@H]1c2ccccc2-c2cncn21 [Example 63a, (7S,8S)-7-((S)-5H-imidazo[5,1-a]isoindol-5-yl)-5,6,7,8-tetrahydroquinolin-8-ol]	0.061 µM
O[C@H]1c2ncccc2CC[C@H]1[C@H]1c2ccccc2-c2cncn21 [Example 63c, (7S,8R)-7-((S)-5H-imidazo[5,1-a]isoindol-5-yl)-5,6,7,8-tetrahydroquinolin-8-ol]	20 µM
CS(=O)(=O)N1CC[C@@H]([C@@H]2c3ccccc3-c3cncn32)[C@H](O)C1 [Example 64a, (3S,4S)-4-((R)-5H-imidazo[5,1-a]isoindol-5-yl)-1-(methylsulfonyl)piperidin-3-ol]	> 25 µM
CS(=O)(=O)N1CCC(C2c3ccccc3-c3cncn32)C(O)C1 [Example 64c, (3R,4R)-4-((R)-5H-imidazo[5,1-a]isoindol-5-yl)-1-(methylsulfonyl)piperidin-3-ol]	> 25 µM
CC1(C)COC[C@@H]([C@H]2c3ccccc3-c3cncn32)[C@H]1O [Example 66a, (4R,5R)-5-((S)-5H-imidazo[5,1-a]isoindol-5-yl)-3,3-dimethyltetrahydro-2H-pyran-4-ol]	> 25 µM
O[C@H]1[C@@H]([C@@H]2c3ccccc3-c3cncn32)CCC12CCOCC2 [Example 68a, (1S,2R)-2-((R)-5H-imidazo[5,1-a]isoindol-5-yl)-8-oxaspiro[4.5]decan-1-ol]	6.8 µM
CNS(=O)(=O)N1CC[C@H]([C@H]2c3ccccc3-c3cncn32)[C@@H](O)C1 [Example 74a, (3R,4R)-3-hydroxy-4-((S)-5H-imidazo[5,1-a]isoindol-5-yl)-N-methylpiperidine-1-sulfonamide]	4 µM
CNS(=O)(=O)N1CC[C@@H]([C@H]2c3ccccc3-c3cncn32)[C@H](O)C1 [Example 74b, (3S,4S)-3-hydroxy-4-((S)-5H-imidazo[5,1-a]isoindol-5-yl)-N-methylpiperidine-1-sulfonamide]	0.11 µM
CN(C)S(=O)(=O)N1CC[C@H]([C@H]2c3ccccc3-c3cncn32)[C@@H](O)C1 [Example 78a]	4.5 µM
CN(C)S(=O)(=O)N1CC[C@@H]([C@H]2c3ccccc3-c3cncn32)[C@H](O)C1 [Example 78b]	0.16 µM
O[C@H]1CN(CC(F)(F)F)CC[C@@H]1[C@H]1c2ccccc2-c2cncn21 [Example 82a, (3R,4R)-4-((S)-5H-imidazo[5,1-a]isoindol-5-yl)-1-(2,2,2-trifluoroethyl)piperidin-3-ol]	4.4 µM
O[C@@H]1CN(CC(F)(F)F)CC[C@H]1[C@H]1c2ccccc2-c2cncn21 [Example 82b, (3S,4S)-4-((S)-5H-imidazo[5,1-a]isoindol-5-yl)-1-(2,2,2-trifluoroethyl)piperidin-3-ol]	0.33 µM
CN1CC[C@H]([C@H]2c3ccccc3-c3cncn32)[C@@H](O)C1 [Example 83a, (3R,4R)-4-[(5S)-5H-imidazo[4,3-a]isoindol-5-yl]-1-methylpiperidin-3-ol]	> 25 µM
CN1CC[C@@H]([C@H]2c3ccccc3-c3cncn32)[C@H](O)C1 [Example 83b, (3S,4S)-4-((S)-5H-imidazo[5,1-a]isoindol-5-yl)-1-methylpiperidin-3-ol]	1.4 µM
O[C@@H]1CC2(COC2)[C@H]1[C@@H]1c2ccccc2-c2cncn21 [Example 87b, (5S,6R)-5-((R)-5H-imidazo[5,1-a]isoindol-5-yl)-2-oxaspiro[3.3]heptan-6-ol]	0.3 µM
O[C@@H]1c2ccccc2CC[C@H]1[C@H]1c2ccccc2-c2cncn21 [Example 102e, (1S,2S)-2-((S)-5H-imidazo[5,1-a]isoindol-5-yl)-1,2,3,4-tetrahydronaphthalen-1-ol]	0.032 µM
O[C@H]1c2ccccc2CC[C@@H]1[C@@H]1c2ccccc2-c2cncn21 [Example 102f, (1R,2R)-2-((R)-5H-imidazo[5,1-a]isoindol-5-yl)-1,2,3,4-tetrahydronaphthalen-1-ol]	5.4 µM

SMILES	EC50
O[C@@H]1CN(C2COC2)CC[C@H]1[C@H]1c2ccccc2-c2cncn21 [Example 103, (3S,4S)-4-((S)-5H-imidazo[5,1-a]isoindol-5-yl)-1-(oxetan-3-yl)piperidin-3-ol]	12 µM
N#Cc1ccc2c(c1)[C@H](O)[C@@H]([C@@H]1c3ccccc3-c3cncn31)CC2 [Example 113a, (7R,8R)-8-hydroxy-7-((R)-5H-imidazo[5,1-a]isoindol-5-yl)-5,6,7,8-tetrahydronaphthalene-2-carbonitrile]	1 µM
CCS(=O)(=O)N1CCC2(CC1)C[C@@H]([C@@H]1c3ccccc3-c3cncn31)[C@@H]2O [Example 114b, (1S,2S)-7-(ethylsulfonyl)-2-((R)-5H-imidazo[5,1-a]isoindol-5-yl)-7-azaspiro[3.5]nonan-1-ol]	> 25 µM
O[C@@H]1COCC[C@H]1[C@H]1c2c(F)cccc2-c2cncn21 [Example 120a, (3S,4S)-4-((S)-6-fluoro-5H-imidazo[5,1-a]isoindol-5-yl)tetrahydro-2H-pyran-3-ol]	> 25 µM
O[C@H]1COCC[C@@H]1[C@@H]1c2c(F)cccc2-c2cncn21 [Example 120b, (3R,4R)-4-((R)-6-fluoro-5H-imidazo[5,1-a]isoindol-5-yl)tetrahydro-2H-pyran-3-ol]	> 25 µM
O[C@H]1c2ncsc2CC[C@@H]1[C@@H]1c2ccccc2-c2cncn21 [Example 125a, (4R,5R)-5-((R)-5H-imidazo[5,1-a]isoindol-5-yl)-4,5,6,7-tetrahydrobenzo[d]thiazol-4-ol]	> 25 µM
O[C@@H]1c2ncsc2CC[C@H]1[C@H]1c2ccccc2-c2cncn21 [Example 125b, (4S,5S)-5-((S)-5H-imidazo[5,1-a]isoindol-5-yl)-4,5,6,7-tetrahydrobenzo[d]thiazol-4-ol]	0.067 µM
CS(=O)(=O)N1CCC[C@](O)([C@@H]2c3ccccc3-c3cncn32)C1 [Example 134a, (R)-3-((S)-5H-imidazo[5,1-a]isoindol-5-yl)-1-(methylsulfonyl)piperidin-3-ol]	1.1 µM
CC(C)[C@@H](O)[C@H]1c2ccc(F)cc2-c2cncn21 [Example 135b, (R)-1-((R)-8-fluoro-5H-imidazo[5,1-a]isoindol-5-yl)-2-methylpropan-1-ol]	> 25 µM
O[C@@H]1c2cccn2CC[C@@H]1[C@@H]1c2ccccc2-c2cncn21 [Example 136b, (7R,8S)-7-((R)-5H-imidazo[5,1-a]isoindol-5-yl)-5,6,7,8-tetrahydroindolizin-8-ol]	> 25 µM
CC[C@H](O)[C@@H]1c2ccccc2-c2cncn21 [Example 137b, (S)-1-((S)-5H-imidazo[5,1-a]isoindol-5-yl)propan-1-ol]	7.9 µM
O[C@H](C1CCOCC1)[C@@H]1c2ccccc2-c2cncn21 [Example 138a, (R)—((S)-5H-imidazo[5,1-a]isoindol-5-yl)(tetrahydro-2H-pyran-4-yl)methanol]	9.7 µM
O[C@H](C1CCCCC1)[C@@H]1c2ccccc2-c2cncn21 [Example 148a, (R)-cyclohexyl((S)-5H-imidazo[5,1-a]isoindol-5-yl)methanol]	14 µM
O[C@@H](C1CCCCC1)[C@H]1c2ccccc2-c2cncn21 [Example 148b, (S)-cyclohexyl((R)-5H-imidazo[5,1-a]isoindol-5-yl)methanol]	16 µM
O[C@@H]1CC(CF)(CF)[C@@H]1[C@H]1c2ccccc2-c2cncn21 [Example 150a, (1R,2R)-3,3-bis(fluoromethyl)-2-((S)-5H-imidazo[5,1-a]isoindol-5-yl)cyclobutan-1-ol]	12 µM
O[C@H]1CC(CF)(CF)[C@H]1[C@@H]1c2ccccc2-c2cncn21 [Example 150c, (1S,2S)-3,3-bis(fluoromethyl)-2-((R)-5H-imidazo[5,1-a]isoindol-5-yl)cyclobutan-1-ol]	0.11 µM
O[C@@H]1c2c(F)cnn2CC[C@@H]1[C@@H]1c2ccccc2-c2cncn21 [Example 151a, (4S,5R)-3-fluoro-5-((R)-5H-imidazo[5,1-a]isoindol-5-yl)-4,5,6,7-tetrahydropyrazolo[1,5-a]pyridin-4-ol]	0.52 µM
CC(C)(C(N)=O)[C@@H](O)[C@H]1c2ccccc2-c2cncn21 [Example 155a, (R)-3-hydroxy-3-((R)-5H-imidazo[5,1-a]isoindol-5-yl)-2,2-dimethylpropanamide]	0.33 µM
O[C@H]1c2[nH]ncc2CC[C@H]1[C@H]1c2ccccc2-c2cncn21 [Example 157d, (6S,7R)-6-((S)-5H-imidazo[5,1-a]isoindol-5-yl)-4,5,6,7-tetrahydro-1H-indazol-7-ol]	23 µM
OC1CC(C2c3ccccc3-c3cncn32)C1O (stereo not drawn) [Example 158a, 3-(5H-imidazo[5,1-a]isoindol-5-yl)cyclobutane-1,2-diol]	7.9 µM
O[C@@H]1c2c(Cl)cnn2CC[C@@H]1[C@@H]1c2ccccc2-c2cncn21 [Example 160a, (4S,5R)-3-chloro-5-((R)-5H-imidazo[5,1-a]isoindol-5-yl)-4,5,6,7-tetrahydropyrazolo[1,5-a]pyridin-4-ol]	> 25 µM
